Assay results taken from the supplement of paper PMC12592484.

What was measured:
Assay in all cases: drug sensitivity score (DSS2, normalised partial AUC of dose-response, 72 h CellTiter-Glo viability) (DSS (dimensionless)); higher = more sensitive (stronger growth inhibition / cytotoxicity); extreme values may be limits of the assay
CAF#2 = system: CAF#2 (primary prostate cancer-associated fibroblasts of iCAF-like type)
Summary of the method: (§1)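 The drug sensitivity score reported here is a partial area under the fitted logistic dose–response curve, divided by the log of the curve's upper asymptote and computed in BREEZE; higher values denote greater sensitivity. Low-passage primary prostate cancer-associated fibroblasts, PF179T, WPMY-1, LNCaP and 22Rv1 cells were seeded into 384-well plates preloaded with compounds at five doses across a 10,000-fold range. CellTiter-Glo 2.0 luminescence gave viability at 72 h, scaled to vehicle and positive-control wells.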

PF179T = system: PF179T
Summary of the method: as §1

CAF#6 = system: CAF#6 (primary prostate cancer-associated fibroblasts of iCAF-like type)
Summary of the method: as §1

CAF#4 = system: CAF#4 (primary prostate cancer-associated fibroblasts of iCAF-like type)
Summary of the method: as §1

WPMY-1 = system: WPMY-1
Summary of the method: as §1

CAF#1 = system: CAF#1 (primary prostate cancer-associated fibroblasts of myCAF-like type)
Summary of the method: as §1

22Rv1 = system: 22Rv1
Summary of the method: as §1

CAF#3 = system: CAF#3 (primary prostate cancer-associated fibroblasts of myCAF-like type)
Summary of the method: as §1

LNCAP = system: LNCAP
Summary of the method: as §1

CAF#7 = system: CAF#7 (primary prostate cancer-associated fibroblasts of myCAF-like type)
Summary of the method: as §1

CAF#5 = system: CAF#5 (primary prostate cancer-associated fibroblasts of myCAF-like type)
Summary of the method: as §1

| SMILES | drug sensitivity score (CAF#2) | drug sensitivity score (PF179T) | drug sensitivity score (CAF#6) | drug sensitivity score (CAF#4) | drug sensitivity score (WPMY-1) | drug sensitivity score (CAF#1) | drug sensitivity score (22Rv1) | drug sensitivity score (CAF#3) | drug sensitivity score (LNCAP) | drug sensitivity score (CAF#7) | drug sensitivity score (CAF#5) |
| --- | --- | --- | --- | --- | --- | --- | --- | --- | --- | --- | --- |
| CN1CCN(c2nc(C3=C(c4c[nH]c5ccccc45)C(=O)NC3=O)c3ccccc3n2)CC1 [Sotrastaurin] (tested concentration range 1-10000 nM) | 2.2 | 0 | 0 | 0 | 1.5 | 0 | 3.6 | 0 | 3.5 | 0 | 0 |
| CC(C)n1cnc2c(NCCc3ccc(O)cc3)nc(-c3csc4ccccc34)nc21 [StemRegenin 1] (tested concentration range 1-10000 nM) | 1.7 | 0 | 0.6 | 2.6 | 2.1 | 1.5 | 2.5 | 3.5 | 5 | 0 | 1.7 |
| CCN(CC)CCNC(=O)c1c(C)[nH]c(/C=C2\C(=O)Nc3ccc(F)cc32)c1C [Sunitinib] (tested concentration range 0.1-1000 nM) | 2.5 | 0 | 0 | 0 | 0.5 | 0 | 0.8 | 2.8 | 0 | 0 | 0.3 |
| C[C@@H](NC(=O)c1ncnc(N)c1Cl)c1ncc(C(=O)Nc2cc(C(F)(F)F)c(Cl)cn2)s1 [TAK-580] (tested concentration range 1-10000 nM) | 0 | 0 | 0 | 2.3 | 0.5 | 0 | 0 | 0.5 | 0.2 | 0.3 | 0 |
| Cc1cccc(-c2[nH]c(CNc3ccccc3F)nc2-c2ccc3ncnn3c2)n1 [TEW-7197] (tested concentration range 0.2-2500 nM) | 0 | 0 | 0 | 0 | 0 | 0.5 | 0 | 0.5 | 0 | 0 | 0.3 |
| Nc1nc(NC2CC2)cc(-c2cccc(Cl)c2Cl)n1 [TH588] (tested concentration range 2.5-25000 nM) | 2.7 | 2.8 | 1.9 | 2.7 | 7.9 | 2 | 4.2 | 3 | 6.5 | 0.5 | 1.7 |
| Clc1ccccc1C(c1ccccc1)(c1ccccc1)n1cccn1 [TRAM-34] (tested concentration range 0.1-1000 nM) | 0.1 | 0 | 0 | 0 | 0 | 0.8 | 0 | 0 | 0 | 0 | 0 |
| CC(=O)Nc1ccc(C(=O)Nc2ccccc2N)cc1 [Tacedinaline] (tested concentration range 0.1-1000 nM) | 2.3 | 0.9 | 0 | 0.5 | 0 | 1.8 | 0.1 | 3.3 | 0.6 | 0.6 | 2.5 |
| C=CC[C@@H]1/C=C(\C)C[C@H](C)C[C@H](OC)[C@H]2O[C@@](O)(C(=O)C(=O)N3CCCC[C@H]3C(=O)O[C@H](/C(C)=C/[C@@H]3CC[C@@H](O)[C@H](OC)C3)[C@H](C)[C@@H](O)CC1=O)[C@H](C)C[C@@H]2OC [Tacrolimus] (tested concentration range 1-10000 nM) | 2.7 | 0 | 2.3 | 0 | 1 | 0.9 | 2.3 | 0.2 | 6.8 | 2 | 0.9 |
| Cn1ncnc1[C@H]1c2n[nH]c(=O)c3cc(F)cc(c23)N[C@@H]1c1ccc(F)cc1 [Talazoparib] (tested concentration range 0.1-1000 nM) | 8 | 11.2 | 1.6 | 3.4 | 4 | 4.9 | 11.5 | 2.1 | 15.3 | 2.9 | 6.2 |
| C[C@@H]1CN(Cc2ccc(F)cc2)[C@@H](C)CN1C(=O)c1cc2c(C(=O)C(=O)N(C)C)cn(C)c2cc1Cl [Talmapimod] (tested concentration range 1-10000 nM) | 0 | 0 | 0 | 0 | 0 | 0 | 0 | 0 | 1.9 | 0 | 0 |
| COc1cc(Nc2ncc(F)c(Nc3ccc4c(n3)NC(=O)C(C)(C)O4)n2)cc(OC)c1OC [Tamatinib] (tested concentration range 1-10000 nM) | 9.7 | 8 | 0.8 | 5.8 | 6 | 10.9 | 0 | 1.7 | 0.8 | 3.2 | 6.4 |
| CC/C(=C(\c1ccccc1)c1ccc(OCCN(C)C)cc1)c1ccccc1 [Tamoxifen] (tested concentration range 1-10000 nM) | 1.3 | 0 | 2.6 | 1.1 | 5 | 0.1 | 3.7 | 2.5 | 4.1 | 1.9 | 2 |
| O[C@H]1CC[C@H](Nc2ncc3nc(Nc4c(F)cc(F)cc4F)n([C@H]4CCOC4)c3n2)CC1 [Tanzisertib] (tested concentration range 1-10000 nM) | 0 | 0 | 0.2 | 0 | 0 | 0 | 0 | 3.3 | 1.3 | 0 | 0 |
| COc1cccc2c1c(O)c(C(=O)N(C)c1ccc(C(F)(F)F)cc1)c(=O)n2C [Tasquinimod] (tested concentration range 1-10000 nM) | 3.5 | 0.4 | 4.4 | 0 | 0 | 0.3 | 0 | 0 | 0 | 5.8 | 3.4 |
| CCN(c1cc(-c2ccc(CN3CCOCC3)cc2)cc(C(=O)NCc2c(C)cc(C)[nH]c2=O)c1C)C1CCOCC1 [Tazemetostat] (tested concentration range 1-10000 nM) | 1.8 | 0 | 0.7 | 0.4 | 0 | 1 | 0 | 1.2 | 1.9 | 0 | 0.9 |
| Cn1nnc2c(C(N)=O)ncn2c1=O [Temozolomide] (tested concentration range 10-100000 nM) | 0 | 0 | 0 | 0 | 0 | 0 | 0 | 0 | 0 | 0 | 0 |
| CO[C@H]1C[C@@H]2CC[C@@H](C)[C@@](O)(O2)C(=O)C(=O)N2CCCC[C@H]2C(=O)O[C@H]([C@H](C)C[C@@H]2CC[C@@H](OC(=O)C(C)(CO)CO)[C@H](OC)C2)CC(=O)[C@H](C)/C=C(\C)[C@@H](O)[C@@H](OC)C(=O)[C@H](C)C[C@H](C)/C=C/C=C/C=C/1C [Temsirolimus] (tested concentration range 0-100 nM) | 10.1 | 9.8 | 5.5 | 9.9 | 6.6 | 10.6 | 16.7 | 4 | 11 | 6 | 11.8 |
| COc1cc([C@@H]2c3cc4c(cc3[C@@H](O[C@@H]3O[C@@H]5CO[C@@H](c6cccs6)O[C@H]5[C@H](O)[C@H]3O)[C@H]3COC(=O)[C@H]23)OCO4)cc(OC)c1O [Teniposide] (tested concentration range 1-10000 nM) | 0 | 0 | 0 | 0 | 0 | 0 | 0 | 0 | 0 | 0 | 0 |
| CN1CCC(COc2cnc(-c3cccc(Cn4nc(-c5cccc(C#N)c5)ccc4=O)c3)nc2)CC1 [Tepotinib] (tested concentration range 0.1-1000 nM) | 3.4 | 2.4 | 0 | 0.5 | 0.7 | 0 | 0 | 0 | 0 | 0 | 3 |
| O=C1CCC(N2C(=O)c3ccccc3C2=O)C(=O)N1 (stereo not given) [Thalidomide] (tested concentration range 1-10000 nM) | 0 | 0 | 0 | 0 | 0 | 0 | 0 | 0 | 0 | 0 | 0 |
| Nc1nc2[nH]cnc2c(=S)[nH]1 [Thioguanine] (tested concentration range 1-10000 nM) | 3.6 | 4.9 | 3.7 | 2.9 | 11.8 | 1.1 | 8.8 | 0.2 | 0.4 | 4.9 | 1.8 |
| O=c1sn(-c2cccc3ccccc23)c(=O)n1Cc1ccccc1 [Tideglusib] (tested concentration range 0.3-3000 nM) | 0.8 | 0 | 2.3 | 0 | 0 | 0 | 0 | 0 | 0 | 1.6 | 0 |
| Cn1cncc1[C@@](N)(c1ccc(Cl)cc1)c1ccc2c(c1)c(-c1cccc(Cl)c1)cc(=O)n2C [Tipifarnib] (tested concentration range 1-10000 nM) | 7.6 | 4.6 | 3.2 | 7 | 9.8 | 2.1 | 13.8 | 7.3 | 14.8 | 1.4 | 4.8 |
| COc1cc2nccc(Oc3ccc(NC(=O)Nc4cc(C)on4)c(Cl)c3)c2cc1OC [Tivozanib] (tested concentration range 1-10000 nM) | 7.7 | 3 | 4.2 | 4.6 | 4.6 | 6.2 | 1.6 | 6 | 4.8 | 6 | 6.9 |
